From paper PMC8563733, “The transcriptional corepressor CtBP2 serves as a metabolite sensor orchestrating hepatic glucose and lipid homeostasis” (Nature Communications, 2021)
Read-outs that look alike come from different tables or passages of the source.

Key:
[1] = biological target: T1, CtBP2 (C-terminal binding protein 2) (Homo sapiens, UniProt P56545); experiment: microscale thermophoresis; supported by DSF (Kd […])
T1 construct: full-length CtBP2 with strep-tag and HA-tag tandemly fused to the C-terminus (baculovirus)

[2] = biological target: T1, CtBP2 (C-terminal binding protein 2); experiment: as above; remark: listed apart in the source

Kd [1] [µM] | Kd [2] [µM] | Structure (SMILES)
19.5 ± 6.61 | – | NC(=O)C1=CN([C@@H]2O[C@H](COP(=O)(O)OP(=O)(O)OC[C@H]3O[C@@H](n4cnc5c(N)ncnc54)[C@H](O)[C@@H]3O)[C@@H](O)[C@H]2O)C=CC1 [NADH]
– | 18.8 ± 1.28 | CCCCCCCC/C=C\CCCCCCCC(=O)SCCNC(=O)CCNC(=O)[C@H](O)C(C)(C)COP(=O)(O)OP(=O)(O)OC[C@H]1O[C@@H](n2cnc3c(N)ncnc32)[C@H](O)[C@@H]1OP(=O)(O)O [oleoyl-CoA]
